Test results as given in PMC5787466, “Accelerated bottom-up drug design platform enables the discovery of novel stearoyl-CoA desaturase 1 inhibitors for cancer therapy” (Oncotarget, 2017).

What was measured:
RCC cell lines = assay: Proliferation assay with exogenous oleic acid (OA) rescue; type: cell-based, Human; conditions: cells treated with proliferative IC50 dose, 72 hour, OA 5µg/mL
Description: Induction of the unfolded protein response (UPR) is a known biological response to SCD1 inhibition in tumor cells. […] The addition of exogenous OA was sufficient to reverse the activation of ATF6 (Figure 4b). Moreover, exogenous OA inhibited SSI-(1-4) mediated upregulation of the UPR markers BiP (heat shock 70 kDa protein) and CHOP (damage inducible transcript 3) protein levels in both A498 and ACHN cells (Figure 4c). Collectively these findings confirm that SSI-(1-4) reliably recapitulates the biological responses observed in tumor cells treated with known SCD1 inhibitors. […] Thus, SSI-4 is not predicted to have any major off-target effects through kinase inhibition (Supplementary Figures 7 and 8).
Results are presented as relative bioluminescence (BLI). […] Beta-actin is used as a loading control. (d) Proliferative response in patient-derived normal cells, and established tumor cell lines to treatment with MF-438 or SSI-(1-4).
Cells were seeded at 5,000 cells/well in clear-bottom 96-well plates in triplicate. Drug treatment was applied at 1:1000 in reduced serum conditions (3%). After 72 hours, cells were washed with PBS, and stored at -80 °C prior to analysis using CyQuant® Proliferation Analysis Kit (Invitrogen) er manufacturers’ protocol for relative fluorescence units. […] IC50 dosing per cell line was calculated using CalcuSyn analytical software.

ACHN = assay: Proliferation dose-response IC50, ACHN; type: cell-based; conditions: Homo sapiens, proliferative IC50, linear regression modeling of dose-response
Procedure: (§1) Error bars indicate standard deviation for n=2 replicates. […] To evaluate inhibition of SCD1 by these molecules, we used LC/MS to quantify changes in SCD1-catalyzed conversion of stearoyl-CoA to oleoyl-CoA in response to drug treatments in vitro using SCD1 protein extracted from murine liver (Figure 3c, Supplementary Figure 2g). […] Synthesis routes and spectral data including NMR and MS are also provided (Supplementary Figures 3-6).
(§2) Cells were seeded at 5,000 cells/well in clear-bottom 96-well plates in triplicate. Drug treatment was applied at 1:1000 in reduced serum conditions (3%). […] Alternatively, cells were plated 2x10^5/well in 12-well plates (Genesee Scientific) in triplicate prior to drug treatment. After 120-hour treatment, cell number was established using a Coulter Particle Counter (Beckman). Oleic acid-albumin (Sigma Aldrich) was added to media at 5µM, and was applied adjuvant to drug treatment. Drug stocks were prepared in DMSO (Sigma) at 1000x. IC50 dosing per cell line was calculated using CalcuSyn analytical software.

SCD1 = conditions: known inhibitor, no reference given; cited from earlier work
Caki2 = assay: Proliferation dose-response IC50, Caki2; type: cell-based; conditions: Homo sapiens, CAKI-2; proliferative IC50, linear regression modeling of dose-response
Procedure: as §1, §2

A498 = assay: Proliferation dose-response IC50, A498; type: cell-based; conditions: Homo sapiens, proliferative IC50, linear regression modeling of dose-response
Procedure: as §1, §2

Caki1 = assay: Proliferation dose-response IC50, Caki1; type: cell-based; conditions: Homo sapiens, CAKI-1; proliferative IC50, linear regression modeling of dose-response
Procedure: as §1, §2

[1] = target: T1, SCD1 protein extracted from murine liver (Mus musculus, UniProt P13516); assay: In vitro SCD1 enzymatic inhibition by LC/MS (stearoyl-CoA to oleoyl-CoA, liver microsomes); type: biochemical; conditions: n=2
T1 construct: Microsomes were isolated from murine liver using Microsome Isolation Kit (BioVision); from tissue; host or cells: murine liver microsomes
T1 sequence (P13516 1-355): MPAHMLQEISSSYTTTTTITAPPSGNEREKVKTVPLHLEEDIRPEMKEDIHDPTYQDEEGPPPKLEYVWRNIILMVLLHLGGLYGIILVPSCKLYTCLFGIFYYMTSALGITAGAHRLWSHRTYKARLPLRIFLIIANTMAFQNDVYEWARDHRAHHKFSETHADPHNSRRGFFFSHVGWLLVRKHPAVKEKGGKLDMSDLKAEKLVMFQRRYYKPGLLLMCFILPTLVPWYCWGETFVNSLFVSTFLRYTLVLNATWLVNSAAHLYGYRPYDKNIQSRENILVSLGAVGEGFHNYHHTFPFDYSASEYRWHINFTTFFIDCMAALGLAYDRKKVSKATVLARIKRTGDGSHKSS
Description: as §1, with “After synthesis feasibility and cost analysis, we synthesized 38 of the selected compounds.” for “Error bars indicate standard deviation for n=2 replicates.”
Microsomes were isolated from murine liver using Microsome Isolation Kit (BioVision) per the manufacturer protocol. […] To quantify biotransformation of ^13C18-stearoyl CoA to ^13C18-oleoyl CoA for drug treatments relative to vehicle controls, supernatants were evaluated using the LC/MS^2 acyl CoA quantitation method of Magnes et al. and adapting selected reaction monitoring (SRM) for isotope-labeled acyl CoAs. […] SRM signal areas for isotope-labeled acyl CoAs were measured relative to the heptadecanoyl CoA I.S. using XCalibur software (Thermo), and percent enzyme inhibition determined by comparing ^13C18-oleoyl CoA quantities between treatment and DMSO control assays. […]

Row | SMILES | rescue of proliferation by exogenous oleic acid (OA) (RCC cell lines) | IC50 (ACHN) | IC50 (SCD1) | IC50 (Caki2) | IC50 (A498) | IC50 (Caki1) | IC50 [1]
1 | CNC(=O)COc1cncc(C(=O)N2CC[C@H](Oc3ccccc3Cl)C2)c1 [ChemBL375265, reference compound] | fully restored proliferation | 0.08 µM | 0.4 µM | 0.5 µM | 5 µM | 1 µM | 
2 | Cc1nnc(-c2ccc(N3CCC(Oc4ccccc4C(F)(F)F)CC3)nn2)s1 [MF-438, 2-methyl-5-(6-(4-(2-(trifluoromethyl)phenoxy)piperidin-1-yl)pyridazin-3-yl)-1,3,4-thiadiazole, reference compound] | fully restored proliferation | 0.006 µM |  | 0.012 µM | 0.008 µM | 0.007 µM | 1.1 nM
